Measured values reported in US20240228555A9, “ANTIMICROBIAL PEPTIDOMIMETICS” (Basilea Pharmaceutica International AG, Allschwil, priority 2020, published 2024).
Where two headings read alike, the source gives them in different places. Where a SMILES comes first, the peptide text is derived from it.

Legend:
[1] = test system: human red blood cells (hRBC); format: cell-based
In short: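 PBS-washed human erythrocytes (20% v/v) were incubated with compounds at 200 μg/mL for 1 h at 37° C with shaking. Supernatant OD540 was read after 8-fold dilution; hemolysis % = OD540 peptide / OD540 of the 100% lysis control (2.5% Triton X-100 in H2O) ×100, with PBS as 0%.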

[2] = test system: Klebsiella pneumoniae SSI3010
In short: (§1)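 Two-fold serial dilutions of peptide, in water with polysorbate 80 (0.002% final), met bacteria adjusted to 0.5 McFarland then diluted to about 5×10^5 CFU/mL. Medium was cation-adjusted Mueller-Hinton II broth; peptide stocks were 1 mg/mL in sterile water.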

[3] = test system: Escherichia coli ATCC 25922
In short: as §1

[4] = test system: Escherichia coli MCR-1 Af 45; settings: Mueller-Hinton broth II, no visible growth after 18-20 hours at 35° C.
In short: as §1

[5] = red cells of human, 1 h, 0.2 g/L
[6] = Mueller-Hinton broth II, no visible growth after 18-20 hours at 35° C.

Row | Compound | Hemolysis at 0.2 g/L [1, 5] [%] | Klebsiella pneumoniae SSI3010 MIC ([2]; SSI3010) [mg/L] | Escherichia coli ATCC 25922 MIC ([3]; ATCC 25922) [mg/L] | Escherichia coli MCR-1 Af 45 MIC [4] [mg/L] | Hemolysis at 0.2 g/L [1] [%] | Klebsiella pneumoniae SSI3010 MIC [2, 6] [mg/L] | Escherichia coli ATCC 25922 MIC [3, 6] [mg/L]
1 | CC[C@H](C)[C@H](NC(=O)[C@@H]1C[C@@H](N)CN1C(=O)[C@@H](N)C(C)C)C(=O)N[C@H](C(=O)N[C@@H](Cc1ccc(O)cc1)C(=O)N[C@@H]1C(=O)N[C@@H](CC(N)=O)C(=O)N[C@@H](CCCNC(=N)N)C(=O)N[C@@H](CCN)C(=O)N[C@@H]([C@@H](C)O)C(=O)N[C@H](CCN)C(=O)N[C@@H](CCCCN)C(=O)N[C@H](C(=O)N[C@@H](CO)C(=O)N[C@@H](CO)C(=O)N[C@@H](Cc2ccc(O)cc2)C(=O)O)CSSC1(C)C)[C@@H](C)O [Example 103, Val-Pro((4R)NH2)-Ile-Thr-Tyr-Pen-Asn-Arg-Dab-Thr-^DDab-Lys-Cys-Ser-Ser-Tyr] (HELM PEPTIDE1{V.[N[C@@H]1C[C@@H](C(=O)[*:2])N([*:1])C1].I.T.Y.[Pen].N.R.[Dab].T.[NCC[C@@H](N[*:1])C(=O)[*:2]].K.C.S.S.Y}$PEPTIDE1,PEPTIDE1,6:R3-13:R3$$$V2.0) | <1 | 0.5 | 0.5 | 0.125 |  |  | 
2 | CC[C@H](C)[C@H](NC(=O)[C@@H](NC(=O)[C@@H]1C[C@@H](N)CN1C(=O)[C@@H](N)C(C)C)[C@@H](C)CC)C(=O)N[C@@H](Cc1ccc(O)cc1)C(=O)N[C@@H]1C(=O)N[C@@H](CC(N)=O)C(=O)N[C@@H](CCCNC(=N)N)C(=O)N[C@@H](CCN)C(=O)N[C@@H]([C@@H](C)O)C(=O)N[C@H](CCN)C(=O)N[C@@H](CCCNC(N)=O)C(=O)N[C@H](C(=O)N[C@@H](CCN)C(=O)N[C@@H](CCCNC(=N)N)C(=O)N[C@@H](Cc2ccc(O)cc2)C(=O)O)CSSC1(C)C [Example 91, Val-Pro((4R)NH2)-Ile-Ile-Tyr-Pen-Asn-Arg-Dab-Thr-^DDab-Cit-Cys-Dab-Arg-Tyr] (HELM PEPTIDE1{V.[N[C@@H]1C[C@@H](C(=O)[*:2])N([*:1])C1].I.I.Y.[Pen].N.R.[Dab].T.[NCC[C@@H](N[*:1])C(=O)[*:2]].[Cit].C.[Dab].R.Y}$PEPTIDE1,PEPTIDE1,6:R3-13:R3$$$V2.0) | <1 | 0.25 | 0.25 | 0.03125 |  |  | 
3 | CC[C@H](C)[C@H](NC(=O)[C@@H](NC(=O)[C@@H]1C[C@@H](N)CN1C(=O)[C@@H](N)C(C)C)[C@@H](C)CC)C(=O)N[C@@H](Cc1ccc(O)cc1)C(=O)N[C@@H]1C(=O)N[C@@H](CC(N)=O)C(=O)N[C@@H](CCCNC(=N)N)C(=O)N[C@@H](CCN)C(=O)N[C@@H]([C@@H](C)O)C(=O)N[C@H](CCN)C(=O)N[C@@H](CCCNC(N)=O)C(=O)N[C@H](C(=O)N[C@@H](CCN)C(=O)N[C@@H](CO)C(=O)N[C@@H](Cc2ccc(O)cc2)C(=O)O)CSSC1(C)C [Example 106, Val-Pro((4R)NH2)-Ile-Ile-Tyr-Pen-Asn-Arg-Dab-Thr-^DDab-Cit-Cys-Dab-Ser-Tyr] (HELM PEPTIDE1{V.[N[C@@H]1C[C@@H](C(=O)[*:2])N([*:1])C1].I.I.Y.[Pen].N.R.[Dab].T.[NCC[C@@H](N[*:1])C(=O)[*:2]].[Cit].C.[Dab].S.Y}$PEPTIDE1,PEPTIDE1,6:R3-13:R3$$$V2.0) | <1 | 0.25 | 0.25 | 0.25 |  |  | 
4 | CC[C@H](C)[C@H](NC(=O)[C@@H]1C[C@@H](O)CN1C(=O)[C@@H](N)C(C)C)C(=O)N[C@H](C(=O)N[C@@H](Cc1ccc(O)cc1)C(=O)N[C@@H]1C(=O)N[C@@H](CC(N)=O)C(=O)N[C@@H](CCCNC(=N)N)C(=O)N[C@@H](CCN)C(=O)N[C@@H](CO)C(=O)N[C@H](CCN)C(=O)N[C@@H](CCCCN)C(=O)N[C@H](C(=O)N[C@@H](CCN)C(=O)N[C@@H](CCCN)C(=O)N[C@@H](Cc2ccc(O)cc2)C(=O)O)CSSC1(C)C)[C@@H](C)O [Example 94, Val-Hyp-Ile-Thr-Tyr-Pen-Asn-Arg-Dab-Ser-^DDab-Lys-Cys-Dab-Orn-Tyr] (HELM PEPTIDE1{V.[Hyp].I.T.Y.[Pen].N.R.[Dab].S.[NCC[C@@H](N[*:1])C(=O)[*:2]].K.C.[Dab].[Orn].Y}$PEPTIDE1,PEPTIDE1,6:R3-13:R3$$$V2.0) | <1 | 0.25 | 0.0625 | 0.0625 |  |  | 
5 | CC[C@H](C)[C@H](NC(=O)[C@@H](NC(=O)[C@@H]1C[C@@H](O)CN1C(=O)[C@@H](N)C(C)C)[C@@H](C)CC)C(=O)N[C@@H](Cc1ccc(O)cc1)C(=O)N[C@@H]1C(=O)N[C@@H](CC(N)=O)C(=O)N[C@@H](CCCNC(=N)N)C(=O)N[C@@H](CCN)C(=O)N[C@@H](CO)C(=O)N[C@H](CCN)C(=O)N[C@@H]([C@@H](C)CC)C(=O)N[C@H](C(=O)N[C@@H](CCN)C(=O)N[C@@H](CCCN)C(=O)N[C@@H](Cc2ccc(O)cc2)C(=O)O)CSSC1(C)C [Example 96, Val-Hyp-Ile-Ile-Tyr-Pen-Asn-Arg-Dab-Ser-^DDab-Ile-Cys-Dab-Orn-Tyr] (HELM PEPTIDE1{V.[Hyp].I.I.Y.[Pen].N.R.[Dab].S.[NCC[C@@H](N[*:1])C(=O)[*:2]].I.C.[Dab].[Orn].Y}$PEPTIDE1,PEPTIDE1,6:R3-13:R3$$$V2.0) | <1 | 0.5 | 0.25 | 0.25 |  |  | 
6 | CC[C@H](C)[C@H](NC(=O)[C@@H](NC(=O)[C@@H]1C[C@@H](O)CN1C(=O)[C@@H](N)C(C)C)[C@@H](C)CC)C(=O)N[C@@H](Cc1ccc(O)cc1)C(=O)N[C@@H]1C(=O)N[C@@H](CC(N)=O)C(=O)N[C@@H](CCCNC(=N)N)C(=O)N[C@@H](CCN)C(=O)N[C@@H]([C@@H](C)O)C(=O)N[C@H](CCN)C(=O)N[C@@H](CO)C(=O)N[C@H](C(=O)N[C@@H](CCN)C(=O)N[C@@H](CCCNC(=N)N)C(=O)N[C@@H](Cc2ccc(O)cc2)C(=O)O)CSSC1(C)C [Example 101, Val-Hyp-Ile-Ile-Tyr-Pen-Asn-Arg-Dab-Thr-^DDab-Cys-Dab-Arg-Tyr] | <1 | 0.25 | 0.125 | 0.125 |  |  | 
7 | CC[C@H](C)[C@H](NC(=O)[C@@H](NC(=O)[C@@H]1C[C@@H](O)CN1C(=O)[C@@H](N)C(C)C)[C@@H](C)CC)C(=O)N[C@@H](Cc1ccc(O)cc1)C(=O)N[C@@H]1C(=O)N[C@@H](CC(N)=O)C(=O)N[C@@H](CCCNC(=N)N)C(=O)N[C@@H](CCN)C(=O)N[C@@H](CO)C(=O)N[C@H](CCN)C(=O)N[C@@H](CCCCN)C(=O)N[C@H](C(=O)N[C@@H](CCN)C(=O)N[C@@H](CCCNC(=N)N)C(=O)N[C@@H](Cc2ccc(O)cc2)C(=O)O)CSSC1(C)C [Example 75, Val-Hyp-Ile-Ile-Tyr-Pen-Asn-Arg-Dab-Ser-^DDab-Lys-Cys-Dab-Arg-Tyr] (HELM PEPTIDE1{V.[Hyp].I.I.Y.[Pen].N.R.[Dab].S.[NCC[C@@H](N[*:1])C(=O)[*:2]].K.C.[Dab].R.Y}$PEPTIDE1,PEPTIDE1,6:R3-13:R3$$$V2.0) | <1 | 0.125 | 0.0625 | 0.0625 |  |  | 
8 | CC[C@H](C)[C@H](NC(=O)[C@@H](NC(=O)[C@@H]1C[C@@H](O)CN1C(=O)[C@@H](N)C(C)C)[C@@H](C)CC)C(=O)N[C@@H](Cc1ccc(O)cc1)C(=O)N[C@@H]1C(=O)N[C@@H](CC(N)=O)C(=O)N[C@@H](CCCNC(=N)N)C(=O)N[C@@H](CCN)C(=O)N[C@@H](CO)C(=O)N[C@H](CCN)C(=O)N[C@@H]([C@@H](C)CC)C(=O)N[C@H](C(=O)N[C@@H](CCN)C(=O)N[C@@H](CCCNC(=N)N)C(=O)N[C@@H](Cc2ccc(O)cc2)C(=O)O)CSSC1(C)C [Example 118, Val-Hyp-Ile-Ile-Tyr-Pen-Asn-Arg-Dab-Ser-^DDab-Ile-Cys-Dab-Arg-Tyr] (HELM PEPTIDE1{V.[Hyp].I.I.Y.[Pen].N.R.[Dab].S.[NCC[C@@H](N[*:1])C(=O)[*:2]].I.C.[Dab].R.Y}$PEPTIDE1,PEPTIDE1,6:R3-13:R3$$$V2.0) | <1 | 0.25 | 0.25 | 0.25 |  |  | 
9 | CC[C@H](C)[C@H](NC(=O)[C@@H](NC(=O)[C@@H]1C[C@@H](N)CN1C(=O)[C@@H](N)C(C)C)[C@@H](C)CC)C(=O)N[C@@H](Cc1ccc(O)cc1)C(=O)N[C@@H]1C(=O)N[C@@H](CC(N)=O)C(=O)N[C@@H](CCCNC(=N)N)C(=O)N[C@@H](CCN)C(=O)N[C@@H]([C@@H](C)O)C(=O)N[C@H](CCN)C(=O)N[C@@H](CCCCN)C(=O)N[C@H](C(=O)N[C@@H](CCN)C(=O)N[C@@H](CO)C(=O)N[C@@H](Cc2ccc(O)cc2)C(=O)O)CSSC1(C)C [Example 100, Val-Pro((4R)NH2)-Ile-Ile-Tyr-Pen-Asn-Arg-Dab-Thr-^DDab-Lys-Cys-Dab-Ser-Tyr] (HELM PEPTIDE1{V.[N[C@@H]1C[C@@H](C(=O)[*:2])N([*:1])C1].I.I.Y.[Pen].N.R.[Dab].T.[NCC[C@@H](N[*:1])C(=O)[*:2]].K.C.[Dab].S.Y}$PEPTIDE1,PEPTIDE1,6:R3-13:R3$$$V2.0) | <1 | 0.25 | 0.25 | 0.0625 |  |  | 
10 | Val-NalloThr-Ile-Thr-Tyr-Pen-Asn-Arg-Dab-Thr-^DDab-Lys-Cys-Dab-Arg-Tyr [Example 133] |  |  |  | 0.25 | <1 | 0.5 | 0.25
